In assay [1] the test system is T. cruzi (Sylvio X10/7A1 strain) epimastigote. In words: microbe, parasite or virus in culture. In kind it is cell-based. The following applies: epimastigote; for EC50: read-out: EC50.
A further assay deals with T. b. brucei BSF. In words: Drug sensitivity assay, T. b. brucei bloodstream forms. It counts as cell-based. Particulars: BSF; for EC50: read-out: EC50.
In assay [2] the test system is L. donovani (LdBOB) promastigote. In words: Drug sensitivity assay, L. donovani promastigotes. In kind it is cell-based. The following applies: promastigote; for EC50: read-out: EC50.
For assay [3], the system named is T. cruzi CL Brener strain. In words: Bioluminescent mouse model of acute T. cruzi infection. It counts as in vivo, BALB/c mice. The following applies: 100 mg/kg QD oral, 5 days, in words. As to the method:
Female BALB/c mice (aged 6-7 weeks), purchased from Charles River (UK), were maintained under specific pathogen-free conditions in individually ventilated cages, with a 12 h light/dark cycle. They had access to food and water ad libitum. Mice were infected by intraperitoneal injection (i.p) of 1x10^3 bloodstream trypomastigotes derived from CB17 SCID mouse blood.
Compounds were prepared in 5% (v/v) dimethyl sulfoxide /95% HPMC suspension vehicle (0.5% (w/v) hydroxypropyl methylcellulose, 0.5% (v/v) benzyl alcohol, 0.4% (v/v) Tween 80 in Milli-Q water). Mice were treated as outlined in Fig. 5, with compounds administered by oral gavage. At different days after infection, mice were injected with d-luciferin (150 mg/kg) i.p., anaesthetized using 2.5% (v/v) gaseous isoflurane and imaged using an IVIS Spectrum (Revvity, Hopkinton, MA, USA) 5-10 min later. To estimate parasite burden, mice ventral and dorsal regions of interest were drawn using Living Image 4.7.3 to quantify bioluminescence expressed as total flux (photons/second; p/s). Regions of interest data from infected and not-infected mice were used as controls. Exposure times varied between 30 sec and 5 min, depending on the signal intensity.

Assay [4] addresses Trypanosoma cruzi lysyl-tRNA synthetase 1 (TcKRS1), recombinant, residues 54-580 (Trypanosoma cruzi). Briefly: SEC; size exclusion chromatography as the last step of purification of recombinant TcKRS1 (tag cleaved); running buffer not stated. (In general: SEC sorts molecules by how far they enter the pores of the column.)

Several values for one entry are separate records, joined by “and”; a condition that tells them apart may be missing. Equal values may be shown once. Read-outs that look alike come from different tables or passages of the source.

What is called EC50 is the concentration that produces a half-maximal response. Consider `O=C(NCC1(O)CCC(F)(F)CC1)c1cc(=O)c2cc(F)ccc2o1` [DDD01510706, reference compound], for which the “Fold-shift (relative to WT)” value in assay [1] (KRS1 OE) is 9 fold; in assay [1] (KRS1 S319L), 25 fold; in the assay on T. b. brucei BSF (KRS1 OE) it was 5 fold and ~ 5 fold; with T. b. brucei BSF (KRS1 serine-to-leucine mutant (S323L; printed S319L in Table S1)), 53 fold; in assay [2] (KRS1 OE), 11 fold; in assay [2] (KRS1 S324L), 12 fold. Further, the EC50 is 13 ± 0.4 µM in assay [1] (KRS1 OE); 36 ± 4 µM in assay [1] (KRS1 S319L); 1.4 ± 0.04 µM in assay [1] (WT); 3 ± 0.1 µM with T. b. brucei BSF (KRS1 OE); 33 ± 1 µM in the assay on T. b. brucei BSF (KRS1 S323L); 0.6 ± 0.01 µM with T. b. brucei BSF (WT). Besides, the EC50 in assay [2] (KRS1 OE) is 8 ± 0.5 µM; in assay [2] (WT), 0.7 ± 0.01 µM.
Take `O=C(Cn1ccnc1[N+](=O)[O-])NCc1ccccc1` [benznidazole, reference compound]: the “parasite burden after treatment” value in assay [3] is “reduced close to the limit of detection”.
A word on the stoichiometry N: it is a count of units in the complex or per binding partner. As to “Trypanosoma cruzi lysyl-tRNA synthetase 1 (TcKRS1), recombinant, residues 54-580 (enzyme)”, the stoichiometry N in assay [4] was 2.
